Broadly, the cell viability is a read-out of living cells in per cent, often relative to untreated cells.

In one data set the test system is NF-κB. Nature of the data set: Electrophoretic mobility shift assay (EMSA), HaCaT nuclear extract. The data set is classed as cell-based, Human. The note with it: 20 μM carnosol; for NF-κB activity induction (EMSA): UVB alone about 2.6 fold. Here is the method: FIGS. 7A-7F: Carnosol inhibited UVB-induced NF-κB activation. Cells were exposed to UVB radiation in the presence or absence of carnosol. Cells were lysed at indicated time point and protein levels were measured by western blot analysis. (FIG. 7A) Western blot for IκB protein level in HaCaT cells at 2, 4 h post UVB radiation at 1, 10 or 20 μM carnosol treatment. (FIG. 7B) Western blot analysis for IκB protein level in HaCaT cells at 6 h post UVB radiation in the presence or absence of carnosol. (FIG. 7C) Western blot analysis for IκB protein level in MEF cells at 6 h post UVB radiation in the presence or absence of carnosol. (FIG. 7D) Western blot for 5276 site phosphorylation of NF-κB in HaCaT cells at 6 h post UVB with indicated carnosol concentration. (FIG. 7E) EMSA assay for HaCaT cells at 2, 4, 6 h post UVB radiation in the presence or absence of carnosol (20 μM). (FIG. 7F) Statistical analysis of the EMSA assay using two to three sets of independent experiments. *p<0.05 versus control group, **p<0.05 versus UV group at indicated time point.
A 22-bp synthetic oligonucleotide (5′-[…]-3′) [SEQ ID NO:1] containing the specific NF-κB-binding site was annealed and labeled with γ-^32P-ATP using T4 polynucleotide kinase. A DNA-binding reaction mixture of total 20 μL containing poly(dI:dC), labeled probe, binding buffer (10 mM pH 8.0 Tris HCl, 150 mM KCl, 0.5 mM EDTA, 0.1% Triton-X 100, 12.5% Glycerol and 0.2 mM DTT) and 10 jag of cell nuclear extract was incubated at room temperature for 30 min and loaded onto a 5% nondenaturing polyacrylamide gel for electrophoresis. The gel was run in 0.5×TBE buffer at 120 V, transferred to a double layer of Whatman paper and dried on a gel dryer for 45-60 mM at 76° C. The dried gel was used to expose an autoradiography film (Denville) at −80° C. and the NF-κB bound ^32P-labeled DNA was detected, and the band intensity was analyzed by Image J.
In general terms: Mobility shift assays separate free from complexed probe on a gel.

In a further data set the test system is HaCaT cells. Description: Cell survival analysis (Annexin V/PI flow cytometry), HaCaT. The data set is classed as cell-based. The method, then:
FIGS. 6A-6C: Carnosol protects UVB-induced cell death. Cells were exposed to UVB radiation with different dose of carnosol treatment. At indicated time point, cells were collected and Annexin V/PI apoptosis detection kit was used to detect cell apoptosis. (FIG. 6A) HaCaT cell survival rate with different concentrations (μM) of carnosol treatment at 12 h post UVB radiation. (FIG. 6B) Time dependent assay (h) in the presence or absence of carnosol treatment in HaCaT cells. (FIG. 6C) MEF cells treated with 20 μM carnosol at indicated time point (h). The error bars present the standard deviation of three sets of independent experiments. *p<0.05 versus control group; **p<0.05 versus corresponded UV group.
(§1) UVB was generated from a Bench XX-Series UV Lamp (UVP Inc.) equipped with two 15-watt UVB tubes (UVP Inc.). The intensity of UVB was calibrated by a UVP model UVX digital radiometer (UVP Inc.) after the lamps warmed up for 5 min. For irradiating cells, the dose rate for 8 mJ/cm^2 or 50 mJ/cm^2 of UVB radiation was 0.8 or 3.8 mW/s respectively. Medium was removed before exposing the cells to UVB. After UVB radiation, fresh medium was added to the culture plates with or without drugs, and the cells were continue incubating at 37° C. with 5% CO2 until further analysis. Carnosol was disovled in DMSO and was irradiated with 50 mJ/cm^2 of UVB radiation at a dose rate of 3.8 mW/s before subjecting to cells or structure analysis using Mass Spectrum.
Carnosol (Cayman) (FIG. 1) was added to cells at indicated concentration at 1 h before exposing the cells to UVB radiation. After radiation, cells were continuously incubated with or without carnosol in the medium until further analysis.
Total cell number of 1×10^5 was used for each analysis using flow cytometer. Fluorescein isothiocyanate (FITC) conjugated-annexin V (ANXS)/propidium iodide (PI) apoptosis detection kit (BD Biosciences) were used to stain the cells through the determination of the loss of membrane phospholipid […] and membrane integrity. Cell survival rate (R) was calculated as: R=[1×10^5−number of positive stained cells]/1×10^5. Briefly, the cells were harvested by 0.25% trypsin digestion, combined with the cells floating in the medium and washed twice with cold PBS. The cells were then suspended in ANXS binding buffer (10 mM Hepes/NaOH, pH 7.4, 140 mM NaCl and 2.5 mM CaCl2). The cell suspension was mixed with 5 μL ANXS-FITC and 5 μL PI. The cell mixture was incubated for […] in dark at room temperature and the ANXS/PI double-stained cells were analyzed using a FACSort Flow Cytometer (BD Science) equipped with CellQuest software (BD Science).

Data set [1] in a line: UVB irradiation of carnosol in DMSO, Mass Spectrum. It is filed as physicochemical. The note with it: 50 mJ/cm^2 UVB. The method, then: FIG. 10B. The carnosol was irradiated with UVB first in the DMSO solution, and then a Mass Spectrum was run to detect the decomposition of the compound.
FIG. 10C. Four major decomposed compounds were detected, with their molecular structure and weight solved.
as §1

The test system of data set [2] is A431 human squamous carcinoma cell. Nature of the data set: MTT cell viability assay, A431. The data set is classed as cell-based. As to conditions: A431, carnosol plus 50 mJ/cm^2 UVB, 24 h, vs no treatment control; UVB alone about 50%. Here is the method:
FIGS. 9A-9B. Carnosol decreases A431 cancer cell progression. Squamous carcinoma cell A431 was used to determine the effect of carnosol on cancer cell progression. (FIG. 9A) Effect of carnosol on cell viability. Cells were treated upon 50 mJ/cm^2 UVB radiation with or without carnosol treatment. After 24 h, cells were collect and MTT assay was performed to determine the cell viability. *p<0.05 versus control group, **p<0.05 versus UV group at indicated time point. (FIG. 9B) Effect of carnosol on clonogenic assay. Cells were exposed to 8 mJ/cm^2 UVB exposure in the presence or absence of carnosol. 5×10^3 cells were plated into 6 well plate immediately after treatment and incubated for […]. The error bars present the standard deviation of three sets of independent experiments. *p<0.05 versus control group, **p<0.05 versus UV group at indicated time point.
Since carnosol protects cell death upon UVB radiation, how carnosol affects skin cancer cells was also determined. A431 human squamous carcinoma cell was used as it is one of the cancer types that keratinocyte would develop. Cell viability was determined by MTT assay.
(In general: Tetrazolium assays rely on reduction of a dye to a coloured formazan, in cell work by metabolically active cells.)

In the case of `CC(C)c1cc2c(c(O)c1O)[C@@]13CCCC(C)(C)[C@@H]1C[C@@H]2OC3=O` [carnosol], the “NF-κB activity (DNA binding, EMSA)” value in the data set on NF-κB (2 h post UVB, UVB alone induced by 20%) is listed as “no statistically significant change”. Moreover, the “NF-κB activity induction (EMSA)” value was determined as 2.2 fold with NF-κB (4 h post UVB) and 1.5 fold with NF-κB (6 h post UVB). Also, the “cell survival with UVB radiation” value in the data set on HaCaT cells (1 μM carnosol, 12 h post UVB) is given as “no statistically significant effect”; in the data set on HaCaT cells (10 μM carnosol, 12 h post UVB), “no statistically significant effect”. The “toxicity to the cells without UVB radiation” value in the data set on HaCaT cells (30 μM carnosol) was “limited toxicity”. Also, the cell survival entry in the data set with HaCaT cells (carnosol alone 1-30 μM, no UVB, 12 h) is “no significant cell survival change”. The cell survival rate with HaCaT cells (dose assay, 20 μM carnosol, 12 h post UVB, UVB alone 20%) was 30%; in the data set on HaCaT cells (dose assay, 30 μM carnosol, 12 h post UVB, vs 20 μM), “no further increasing”; with HaCaT cells (time assay, 20 μM carnosol, 6 h post UVB) it was “no significance”; with HaCaT cells (time assay, 20 μM carnosol, 12 h post UVB, UVB alone 30%) it was 40%; with HaCaT cells (time assay, 20 μM carnosol, 24 h post UVB, UVB alone 7%), 15%. The “decomposition upon UVB radiation” value in data set [1] is “breaks down to 4 major products”. In data set [2], the cell viability came to 30%.

These data come from patent US20190388389A1, “METHODS AND COMPOSITIONS OF CARNOSOL FOR INHIBITING UVB-INDUCED SKIN DAMAGE” (Ohio University, priority 2017, published 2019).
